How the values were obtained:
[1] = target: T1, prostacyclin receptor (IPR) (Homo sapiens, UniProt P43119); test: cAMP accumulation (LANCE) in human lung fibroblasts, endogenous receptor; about […] blocked by IPR antagonist RO-1138452; type: cell-based
T1 construct: gene PTGIR

[2] = target: T1, prostacyclin receptor (IPR); test: cAMP accumulation (LANCE) in human lung fibroblasts, endogenous receptor; partial agonist; type: cell-based

T1 sequence (P43119 1-383): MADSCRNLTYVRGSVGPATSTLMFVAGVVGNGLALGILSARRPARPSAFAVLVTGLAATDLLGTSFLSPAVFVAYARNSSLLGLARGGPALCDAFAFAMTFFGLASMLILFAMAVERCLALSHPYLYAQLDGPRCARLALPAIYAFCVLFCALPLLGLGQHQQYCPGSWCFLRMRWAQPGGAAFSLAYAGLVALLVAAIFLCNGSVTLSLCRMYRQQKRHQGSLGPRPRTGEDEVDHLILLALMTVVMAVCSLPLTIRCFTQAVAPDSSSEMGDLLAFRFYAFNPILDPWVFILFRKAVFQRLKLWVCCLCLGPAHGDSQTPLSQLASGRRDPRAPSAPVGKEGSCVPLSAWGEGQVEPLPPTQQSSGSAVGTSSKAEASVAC

SMILES | EC50 [1] | EC50 [2]
CCCCC[C@H](O)CC[C@@H]1[C@H]2Cc3cccc(OCC(=O)O)c3C[C@H]2C[C@H]1O [treprostinil] | 64 nM | –
CC(C)N(CCCCOCC(=O)O)c1cnc(-c2ccccc2)c(-c2ccccc2)n1 [MRE-269, {4-[(5,6-Diphenylpyrazin-2-yl)(isopropyl)amino]butoxy}acetic Acid] | – | 200 nM

From publication PMC8116805, “Inhibition of the Proliferation of Human Lung Fibroblasts by Prostacyclin Receptor Agonists is Linked to a Sustained cAMP Signal in the Nucleus” (Frontiers in Pharmacology, 2021)
